Test results: patent US20250161338A1, “Compounds for Anti-aging Intervention” (AGENCY FOR SCIENCE, TECHNOLOGY AND RESEARCH, priority 2022, published 2025)
Counter-ions that a name gives are not always drawn.

Experiments:
[1] = system: prototrophic yeast strain (CEN.PK113-7D); experiment: Yeast outgrowth in YPD liquid medium (CLS of aged cells); format: cell-based, Saccharomyces cerevisiae; settings: concentration tested 100 μM; OD600 nm after 24 h in YPD at 30° C.; age point day 14
Experimental: (§1) CLS experiments were performed in 96-well plates with 200 μL yeast culture. Cellular inoculums were transferred into 96-well plates containing serially double-diluted concentrations (0 to 10 nM) of rapamycin. Cellular inoculum was transferred into 96-well plates containing serially double-diluted concentrations (0 to 8 mM) of 2,5-anhydro-D-mannitol, D-fructose, D-mannitol, D-maltose, and D-sorbitol in SD medium. Cells were incubated at 30° C., and the growth was measured at different time points. […] Cell survival was quantified at various age time points by three different approaches: (i) PI fluorescence-based method, (ii) outgrowth in YPD liquid medium, and (iii) spotting assay (FIG. 1).
Outgrowth (OD600) of aged cells was measured by the microplate reader. Quantification of cell survival for each age point was determined as relative to Day 1 (considered 100% cell survival). This quantification was performed by using the formula,
[formula] • where OutgrowthDay n refers to the OD600 nm absorbance reading recorded on a specific day, OutgrowthDay 1 refers to the OD600 nm absorbance reading recorded on the first day where 100% cell survival is assumed.
The CLS of the aged cells was further determined by the yeast outgrowth in YPD liquid medium method as described above. […] At chronological age point day 14, 3-μL of culture were transferred to a second 96-well plate containing 200 μL YPD medium.

[2] = system: prototrophic yeast strain (CEN.PK113-7D); experiment: Propidium iodide fluorescence-based CLS method in yeast (incl. high-throughput screening); format: cell-based, Saccharomyces cerevisiae; settings: concentration tested 100 μM; for Yeast CLS increase: Yes/No call of the screen; for PI intensity: solvent DMSO or water, chronological age point Day 7 (72 h growth = Day 1), lower = more survival;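 on PI intensity: untreated reference is eight DMSO and water control wells per plate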
Experimental: Yeast strain was recovered from frozen glycerol stock at 30° C. on YPD agar medium. Yeast was left to propagate in SD medium overnight at 30° C. with shaking at 220 revolutions per minute (rpm). Cells propagated overnight were diluted to a starting optical density at 600 nm (OD600) of approximately 0.2 in fresh SD medium to begin the chronological lifespan (CLS) experiments.
as §1
Yeast cells (40 μL) from different age time points were transferred into a second 96-well plate (different to the 96-well plate in which the CLS analysis as outlined above was performed). Cells were washed and incubated in 100 μL 1×phosphate buffered saline (PBS) with propidium iodide (PI) (5 μg/mL) for 15 minutes in the dark. Positive and negative control samples were included for quantitative analysis. Positive control (cells boiled at 100° C. for 15 minutes) was PI-stained and processed in the same 96-well plate. Samples without PI-stained cells served as the negative control. After incubation, cells were washed and resuspended in 100 μL PBS. The fluorescence reading of the samples (excitation and emission wavelengths at 535 nm and 617 nm, respectively) and OD600 were measured with a microplate reader (BioTek, Winooski, Vermont, United States). The fluorescence intensity of each sample was normalized with OD600. The background fluorescence signal of the unstained negative sample was subtracted from the normalized fluorescence intensity of each sample. The obtained fluorescence intensity of the positive control (boiled dead cells) was considered 0% cell survival. Cell death was validated by allowing the boiled dead cells to grow in medium. Cell survival at different age time points of samples were calculated by normalizing the fluorescence intensity with positive control sample (boiled cells).
High-throughput screening of various chemicals was tested using the same protocol for the propidium iodide fluorescence-based method as described above. The prototrophic yeast strain (CEN.PK113-7D) was grown in the synthetic defined medium with different chemical reagents at their respective single testing concentration (Table 1) in addition to eight replicates of DMSO and water controls in 96-well plates at 30° C.

Structure (SMILES)	Outgrowth [1]	Yeast CLS increase [2]	PI intensity [2]	PI intensity ([2]; (monohydrate))
CC1OC(OC2C(=O)c3c(O)cc(O)cc3OC2c2ccc(O)cc2)C(O)C(O)C1O (centres unmarked) [Engeletin]	0.9	Yes	37,144.4	
COc1cc2c(cc1OC)-c1cc3ccc4c(c3c[n+]1CC2)OCO4.[Cl-] [Epiberberine (chloride)]	1.3	Yes	38,027.2	
O=c1ccc2cc(O[C@@H]3O[C@H](CO)[C@@H](O)[C@H](O)[C@H]3O)c(O)cc2o1 [Esculin]	0.1	No	72,890.7	
CCOC(=O)c1ccc(O)cc1 [Ethylparaben]	0.1	No	52,097.7	
C=C1[C@H](OC(=O)c2ccccc2)C[C@H]2[C@@H](/C=C(\C)C(=O)[C@@]3(OC(C)=O)C[C@H](C)[C@H](OC(=O)c4ccccc4)[C@@H]3[C@H]1OC(C)=O)C2(C)C [Euphorbia Factor L2]	0.1	No	68,871.8	
Cc1cc2nc3c(=O)[nH]c(=O)nc-3n(C[C@H](O)[C@H](O)[C@H](O)COP(=O)(O)OP(=O)(O)OC[C@H]3O[C@@H](n4cnc5c(N)ncnc54)[C@H](O)[C@@H]3O)c2cc1C [Flavin adenine dinucleotide (disodium salt)]	0.2	No	59,508.7	
NC=O [Formamide]	0.1	No	64,135.2	
O=C1NC(c2ccccc2)(c2ccccc2)C(=O)N1COP(=O)(O)O [Fosphenytoin (disodium), reference compound]	0.1	No	61,860.0	
COC(=O)C1=CO[C@@H](O[C@@H]2O[C@H](CO)[C@@H](O)[C@H](O)[C@H]2O)[C@H]2[C@@H]1C=C[C@@]2(O)CO [Gardenoside]	0.1	No	65,525.5	
C=C[C@@H]1C2=CCOC(=O)C2=CO[C@H]1O[C@@H]1O[C@H](CO)[C@@H](O)[C@H](O)[C@H]1O [Gentiopicroside]	0.1	No	59,804.7	
CC(C)=CCC/C(C)=C/CO [Geraniol]	0.1	No	76,340.1	
Cl.N[C@H]1C(O)O[C@H](CO)[C@@H](O)[C@@H]1O (some centres unmarked) [Glucosamine (hydrochloride)]	0.1	No	65,905.5	
CC(CCC(=O)NCC(=O)O)C1CCC2C3CCC4CC(O)CCC4(C)C3CC(O)C12C (centres unmarked) [Glycodeoxycholic acid (monohydrate)]	0.1	No		73,459.3
C[C@H](CCC(=O)NCC(=O)O)[C@H]1CC[C@H]2[C@@H]3[C@@H](O)C[C@@H]4C[C@H](O)CC[C@]4(C)[C@H]3CC[C@]12C [Glycoursodeoxycholic acid]	0.1	No	64,205.2	
Cc1cc2c(C(C)C)c(O)c(O)c(C=O)c2c(O)c1-c1c(C)cc2c(C(C)C)c(O)c(O)c(C=O)c2c1O [Gossypol]	0.1		65,220.1	
Cc1ccc(C(C)C)cc2c(C)ccc1-2 [Guaiazulene]	0.1	No	58,776.1	
C/C=C1\C(=O)C[C@H]2[C@@H]3CCC4=CC(=O)CC[C@]4(C)[C@H]3CC[C@]12C [Guggulsterone]	0.1	No	63,881.9	
